Data from US20160106711A1, “3-3-Di-Substituted-Oxindoles as Inhibitors of Translation Initiation” (President and Fellows of Harvard College, priority 2012, published 2016).

Each molecule was assayed on KLN (assay: Cell growth assay (sulforhodamine B), KLN cells). Settings: Mus musculus, 120 h, 5 days, SRB.
Format: cell-based, mouse
`CCN(CC)CCOc1ccc(C(C)(C)C)cc1C1(c2cc(C(C)(C)C)ccc2O)C(=O)Nc2ccccc21` (centres unmarked) [HY096] was tested, and the IC50 was 0.8 ± 0.4 µM.
Molecule `COCCOc1ccc(C(C)(C)C)cc1C1(c2cc(C(C)(C)C)ccc2OCCOC)C(=O)Nc2ccccc21` [HY181] has an IC50 greater than 20 µM.
In the case of `CC(C)(C)c1ccc(O)c(C2(c3cc(C(C)(C)C)ccc3OCCBr)C(=O)N(CCBr)c3ccccc32)c1` (centres unmarked) [HY183], the IC50 is reported as greater than 20 µM.
`CC(C)(C)c1ccc(OCCN2CCCC2)c(C2(c3cc(C(C)(C)C)ccc3OCCN3CCCC3)C(=O)Nc3ccccc32)c1` [HY191] gave an IC50 of 3.5 ± 1.2 µM.
Molecule `CC(C)(C)c1ccc(O)c(C2(c3cc(C(C)(C)C)ccc3O)C(=O)N(CCN3CCOCC3)c3ccccc32)c1` [HY304] has an IC50 of 17.5 ± 1.3 µM.
`CC(C)(C)c1ccc(O)c(C2(c3cc(C(C)(C)C)ccc3OCCN3CCOCC3)C(=O)N(CCN3CCOCC3)c3ccccc32)c1` (centres unmarked) [HY305] gave an IC50 of 5 µM.
In the case of `CN1CCN(CCOc2ccc(C(C)(C)C)cc2C2(c3cc(C(C)(C)C)ccc3OCCN3CCN(C)CC3)C(=O)N(CCN3CCNCC3)c3ccccc32)CC1` [HY313], the IC50 is reported as 9.3 ± 3.2 µM.

What follows are molecules tested on CRL-2813 (assay: Cell growth assay (sulforhodamine B), CRL-2813 cells). Settings: Homo sapiens, CRL2813, 120 h, 5 days, SRB.
Format: cell-based, human
Summary of the method: (§1)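 Cells were exposed for 5 days to 0.54-6 µM compound, then TCA-fixed and stained with sulforhodamine B, read at 490 nm. Growth was expressed as %T/C with time-zero correction. IC50 is the concentration giving 50% growth inhibition.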
`CCN(CC)CCOc1ccc(C(C)(C)C)cc1C1(c2cc(C(C)(C)C)ccc2O)C(=O)Nc2ccccc21` (centres unmarked) [HY096] was tested, and the IC50 was 1.5 ± 0.6 µM.
With `COCCOc1ccc(C(C)(C)C)cc1C1(c2cc(C(C)(C)C)ccc2OCCOC)C(=O)Nc2ccccc21` [HY181] the IC50 was 0.9 ± 0.1 µM.
Work on `CC(C)(C)c1ccc(O)c(C2(c3cc(C(C)(C)C)ccc3OCCBr)C(=O)N(CCBr)c3ccccc32)c1` (centres unmarked) [HY183] yielded an IC50 of 1.1 ± 0.3 µM.
With `CC(C)(C)c1ccc(OCCN2CCCC2)c(C2(c3cc(C(C)(C)C)ccc3OCCN3CCCC3)C(=O)Nc3ccccc32)c1` [HY191] the IC50 was 0.8 ± 0.1 µM.
With `CC(C)(C)c1ccc(O)c(C2(c3cc(C(C)(C)C)ccc3O)C(=O)N(CCN3CCOCC3)c3ccccc32)c1` [HY304] the IC50 was 1.6 ± 0.2 µM.
With `CC(C)(C)c1ccc(O)c(C2(c3cc(C(C)(C)C)ccc3OCCN3CCOCC3)C(=O)N(CCN3CCOCC3)c3ccccc32)c1` (centres unmarked) [HY305] the IC50 was 2 µM.
Work on `CN1CCN(CCOc2ccc(C(C)(C)C)cc2C2(c3cc(C(C)(C)C)ccc3OCCN3CCN(C)CC3)C(=O)N(CCN3CCNCC3)c3ccccc32)CC1` [HY313] yielded an IC50 greater than 20 µM.

What follows are molecules tested on CRL-2351 (assay: Cell growth assay (sulforhodamine B), CRL-2351 cells). Settings: Homo sapiens, 120 h, 5 days, SRB.
Format: cell-based, human
Summary of the method: as §1
In the case of `CCN(CC)CCOc1ccc(C(C)(C)C)cc1C1(c2cc(C(C)(C)C)ccc2O)C(=O)Nc2ccccc21` (centres unmarked) [HY096], the IC50 is reported as 0.6 ± 0.1 µM.
`COCCOc1ccc(C(C)(C)C)cc1C1(c2cc(C(C)(C)C)ccc2OCCOC)C(=O)Nc2ccccc21` [HY181] was tested, and the IC50 was 3.9 ± 2 µM.
`CC(C)(C)c1ccc(O)c(C2(c3cc(C(C)(C)C)ccc3OCCBr)C(=O)N(CCBr)c3ccccc32)c1` (centres unmarked) [HY183] gave an IC50 of 2.9 ± 1.2 µM.
`CC(C)(C)c1ccc(OCCN2CCCC2)c(C2(c3cc(C(C)(C)C)ccc3OCCN3CCCC3)C(=O)Nc3ccccc32)c1` [HY191] showed an IC50 of 0.65 ± 0.1 µM.
`CC(C)(C)c1ccc(O)c(C2(c3cc(C(C)(C)C)ccc3O)C(=O)N(CCN3CCOCC3)c3ccccc32)c1` [HY304] showed an IC50 of 2.2 ± 0.2 µM.
Molecule `CC(C)(C)c1ccc(O)c(C2(c3cc(C(C)(C)C)ccc3OCCN3CCOCC3)C(=O)N(CCN3CCOCC3)c3ccccc32)c1` (centres unmarked) [HY305] has an IC50 of 3.6 ± 0.7 µM.
`CN1CCN(CCOc2ccc(C(C)(C)C)cc2C2(c3cc(C(C)(C)C)ccc3OCCN3CCN(C)CC3)C(=O)N(CCN3CCNCC3)c3ccccc32)CC1` [HY313] showed an IC50 of 0.6 ± 0.1 µM.

These molecules were tested on CHOP mRNA (assay: Real time PCR of CHOP mRNA expression, KLN cells). Settings: Mus musculus, at 5 uM.
Format: cell-based, mouse
Description: In order to validate the compounds described herein as modifiers of the abundance of the eIF2•GTP•Met-tRNAi ternary complex, the effects of the compounds on endogenous cellular markers of the ternary complex were determined. For example, reducing amount of the ternary complex increases translation of ATF-4, which results in elevated expression of CHOP mRNA and protein. Therefore, expression of endogenous CHOP mRNA and CHOP protein in KLN-tTA/pBISA-DL^(ATF-4) cells were utilized as secondary assays to validate the compounds as modifiers of the eIF2•GTP•Met-tRNAi ternary complex.
Total RNA was extracted with TaqMan Gene Expression Cells-to-Ct™ Kit (Applied Biosystems, Branchburg, N.J.) and DNAse I treated according to manufacturer's recommendations. 1-Step Real-time PCR was performed on a Bio-Rad iCycler IQ5 system by using B-R 1-Step SYBR Green qRT-PCR Kit (Quanta BioSciences, Gaithersburg, Md.) according to manufacturer's specifications. The thermal cycler conditions were as follows: 10 minutes at 50° C., hold for 5 minutes at 95° C., followed by 2-step PCR for 45 cycles of 95° C. for 15 seconds followed by 60° C. for 30 seconds. All PCRs were performed in triplicate in at least two independent PCR runs. Mean values of these repeated measurements were used for calculation. To calibrate the results, all the transcript quantities were normalized to 18S rRNA (18S ribosomal RNA-like mRNA in mouse). The following primers were used in real-time PCR reactions.
The effects of these compounds on the ternary complex assay and the expression of CHOP mRNA was assayed in adherent mouse (KLN) and human solid tumors cells (CRL-2351 and CRL-2813).
`CC(C)(C)c1ccc(OCCN2CCCC2)c(C2(c3cc(C(C)(C)C)ccc3OCCN3CCCC3)C(=O)Nc3ccccc32)c1` [HY191] showed a fold induction at 5 µM of 8.5.

Same assay, conditions: Mus musculus, at 20 uM
With `CCN(CC)CCOc1ccc(C(C)(C)C)cc1C1(c2cc(C(C)(C)C)ccc2O)C(=O)Nc2ccccc21` (centres unmarked) [HY096] the fold induction at 20 µM was 12.4.

Same assay, conditions: Mus musculus, at 10 (uM)
In the case of `CN1CCN(CCOc2ccc(C(C)(C)C)cc2C2(c3cc(C(C)(C)C)ccc3OCCN3CCN(C)CC3)C(=O)N(CCN3CCNCC3)c3ccccc32)CC1` [HY313], the fold induction at 10 µM is reported as 6.73.

Same assay, conditions: Mus musculus, at 40 (uM)
With `CC(C)(C)c1ccc(O)c(C2(c3cc(C(C)(C)C)ccc3O)C(=O)N(CCN3CCOCC3)c3ccccc32)c1` [HY304] the fold induction at 40 µM was 9.1.
Molecule `CC(C)(C)c1ccc(O)c(C2(c3cc(C(C)(C)C)ccc3OCCN3CCOCC3)C(=O)N(CCN3CCOCC3)c3ccccc32)c1` (centres unmarked) [HY305] has a fold induction at 40 µM of 10.

Same assay, conditions: Mus musculus, at 80 (uM)
Work on `COCCOc1ccc(C(C)(C)C)cc1C1(c2cc(C(C)(C)C)ccc2OCCOC)C(=O)Nc2ccccc21` [HY181] yielded a fold induction at 80 µM of 1.1.
Work on `CC(C)(C)c1ccc(O)c(C2(c3cc(C(C)(C)C)ccc3OCCBr)C(=O)N(CCBr)c3ccccc32)c1` (centres unmarked) [HY183] yielded a fold induction at 80 µM of 1.83.

What follows are molecules tested on eIF2•GTP•Met-tRNAi ternary complex (assay: Ternary complex assay (ATF-4 assay), dual luciferase firefly/renilla ratio). Settings: Mus musculus, 20 uM, read-out: ATF-4 Xmax.
Format: cell-based, mouse
Summary of the method: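 Stable KLN cancer cells expressing tTA carry a bidirectional reporter in which firefly luciferase sits behind the ATF-4 5′UTR and renilla luciferase behind a plasmid-derived 5′UTR only. Lysates were read by Dual-Glo luciferase assay, and the output is the firefly/renilla signal ratio.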
In the case of `CCN(CC)CCOc1ccc(C(C)(C)C)cc1C1(c2cc(C(C)(C)C)ccc2O)C(=O)Nc2ccccc21` (centres unmarked) [HY096], the maximal fold induction at 20 µM is reported as 16.7 ± 3.24.

Same assay, conditions: Mus musculus, 80 uM, read-out: ATF-4 Xmax
Work on `COCCOc1ccc(C(C)(C)C)cc1C1(c2cc(C(C)(C)C)ccc2OCCOC)C(=O)Nc2ccccc21` [HY181] yielded a maximal fold induction at 80 µM of 1.58 ± 0.07.
In the case of `CC(C)(C)c1ccc(O)c(C2(c3cc(C(C)(C)C)ccc3OCCBr)C(=O)N(CCBr)c3ccccc32)c1` (centres unmarked) [HY183], the maximal fold induction at 80 µM is reported as 1.9 ± 0.03.
`CC(C)(C)c1ccc(O)c(C2(c3cc(C(C)(C)C)ccc3OCCN3CCOCC3)C(=O)N(CCN3CCOCC3)c3ccccc32)c1` (centres unmarked) [HY305] showed a maximal fold induction at 80 µM of 31.9 ± 9.27.

Same assay, conditions: Mus musculus, at 40 uM, read-out: ATF-4 Xmax @ 40 μM
With `CC(C)(C)c1ccc(O)c(C2(c3cc(C(C)(C)C)ccc3O)C(=O)N(CCN3CCOCC3)c3ccccc32)c1` [HY304] the maximal fold induction at 40 µM was 4.31 ± 0.1.
In the case of `CC(C)(C)c1ccc(O)c(C2(c3cc(C(C)(C)C)ccc3OCCN3CCOCC3)C(=O)N(CCN3CCOCC3)c3ccccc32)c1` (centres unmarked) [HY305], the maximal fold induction at 40 µM is reported as 3.61 ± 0.47.

Same assay, conditions: Mus musculus, cell prints 5 (uM), read-out: ATF-4 Xmax
`CC(C)(C)c1ccc(OCCN2CCCC2)c(C2(c3cc(C(C)(C)C)ccc3OCCN3CCCC3)C(=O)Nc3ccccc32)c1` [HY191] was tested, and the maximal fold induction at 5 µM was 13.9 ± 0.97.
